Results published in article PMC5693111, “Small molecule Photoregulin3 prevents retinal degeneration in the Rho^P23H mouse model of retinitis pigmentosa” (eLife, 2017).

Target: T1, NR2E3 (Homo sapiens, UniProt Q9Y5X4)
T1 construct: aa 90–410 (expressed as His8-MBP-TEV fusion, tag removed)
Test: isothermal titration calorimetry ([…] PR3 injected into […] NR2E3; one site model, qualitative)
Format: binding

T1 sequence (Q9Y5X4 90-410): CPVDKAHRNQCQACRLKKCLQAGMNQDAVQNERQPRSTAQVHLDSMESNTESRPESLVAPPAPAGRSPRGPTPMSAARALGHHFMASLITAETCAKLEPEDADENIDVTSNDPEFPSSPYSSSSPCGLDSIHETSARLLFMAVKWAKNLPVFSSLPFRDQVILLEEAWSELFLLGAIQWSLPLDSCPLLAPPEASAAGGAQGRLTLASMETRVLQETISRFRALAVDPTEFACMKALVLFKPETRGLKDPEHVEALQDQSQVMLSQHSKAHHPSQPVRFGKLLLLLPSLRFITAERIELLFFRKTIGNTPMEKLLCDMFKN

COc1cc2nc(CN3CC=C(c4ccccc4)CC3)nc(O)c2cc1OC [PR3, Photoregulin3]
Kd: ~67 µM
